In this assay the test system is SULT2B1b-mediated CS production in E0771-SULT cells. Kind of assay: CS production inhibitory effect in E0771-SULT cells (LC/MS/MS quantification of CS). Format: cell-based, mouse. The following applies: Mus musculus; for activity at 10 µM: relative to control (100%). In short, it runs like this: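 Mouse E0771 breast cancer cells expressing SULT2B1b, seeded at 5×10^5 cells/well and cultured 24 h with or without test compound. CS extracted with deuterated internal standards and quantified by LC/MS/MS (ESI, MRM) against calibration curves. Values are % of CS production in untreated cells.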

One molecule from patent US20250002526A1, “PHARMACEUTICAL COMPOSITION HAVING ANTI-CANCER IMMUNOSTIMULATING EFFECT AND/OR IMMUNE CHECKPOINT INHIBITION POTENTIATING EFFECT” (KYUSHU UNIVERSITY, NATIONAL UNIVERSITY CORPORATION, priority 2021, published 2025) can be followed below.

Where two headings read alike, the source gives them in different places.

Take `C[C@H](CCC(=O)O)[C@H]1CC[C@H]2[C@@H]3CC=C4C[C@@H](O)CC[C@]4(C)[C@H]3CC[C@]12C` [Compound 1, (R)-4-((3S,8S,9S,10R,13R,14S,17R)-3-hydroxy-10,13-dimethyl-2,3,4,7,8,9,10,11,12,13,14,15,16,17-tetradecahydro-1H-cyclopenta[a]phenanthren-17-yl)pentanoic acid]: the activity at 10 µM came out at 35.8% (24 h, read-out: CS production % activity at 10 μM, E0771-SULT cells, 24 hours, test compound 10 μM (Table 1)) and 47.1% (24 h, read-out: CS production % activity at 10 μM, E0771-SULT cells, 24 hours, third concentration column of Table 1, head again printed 10 μM). Also, under “24 h, read-out: CS production % activity at 20 μM, E0771-SULT cells, 24 hours, test compound 20 μM, relative to control without compound (100%)”, the activity at 20 µM was determined as 30.8%. Also, for the setting “read-out: IC50 value (CS production)”, the IC50 amounted to 5.8 µM.
